Values after ≈ are worked out from the molar mass of the structure shown. Like-named read-outs stand apart in the source and are kept apart here.
How the values were obtained:
[1] = tested on: Proteus vulgaris (Pv); experiment: Minimum inhibitory concentration, nutrient agar, Proteus vulgaris; settings: 48 h
[2] = tested on: Bacillus subtilis (Bs); experiment: Minimum inhibitory concentration, nutrient agar, Bacillus subtilis; settings: 48 h
[3] = tested on: Salmonella choleraesuis (Sc); experiment: Minimum inhibitory concentration, nutrient agar, Salmonella choleraesuis; type: cell-based, Salmonella choleraesuis ATCC 10708; settings: Salmonella enterica, 30° C, 48 hours
[4] = tested on: Trichoderma viride (Tv); experiment: Minimum inhibitory concentration, malt yeast agar, Trichoderma viride; type: cell-based, Trichoderma viride ATCC 8678; settings: read-out: Minimum Inhibitory Concentration, Tv
Protocol: (§1) Malt yeast agar is prepared by adding 3 g yeast extract and 45 g malt agar per liter of deionized water. The specific agar is dispensed in 30 mL aliquots into 25×200 mm test tubes, capped and autoclaved for 15 minutes at 115° C.
(§2) The inoculation with the yeast and fungi is accomplished as follows. Cultures of yeast and fungi are incubated for seven days on malt yeast agar at 30° C. These cultures are used to prepare suspensions by the following procedure. A suspension of each organism is prepared by adding 10 mL of sterile saline and 10 microliters of octylphenoxy polyethoxy ethanol to the agar slant of yeast or fungi. The sterile saline/octylphenoxy polyethoxy ethanol solution is then agitated with a sterile swab to suspend the microorganism grown on the slant. Each resulting suspension is diluted into sterile saline (1 part suspension to 9 parts sterile saline). Aliquots of these dilutions are placed in individual wells of Steer's Replicator and petri plates inoculated as previously described. The petri plates are incubated at 30° C. and read after 48 hours for yeast and 72 hours for fungi.

[5] = tested on: Staphylococcus aureus (Sa); experiment: Minimum inhibitory concentration, nutrient agar, Staphylococcus aureus; settings: 48 h
[6] = tested on: Enterobacter aerogenes (Ea); experiment: Minimum inhibitory concentration, nutrient agar, Enterobacter aerogenes; settings: Klebsiella aerogenes, 48 h
[7] = tested on: Pseudomonas aeruginosa (PRD-10); experiment: Minimum inhibitory concentration, nutrient agar, Pseudomonas aeruginosa PRD-10; settings: 48 h
[8] = tested on: Escherichia coli (Ec); experiment: Minimum inhibitory concentration, nutrient agar, Escherichia coli; settings: 48 h
[9] = tested on: Fusarium oxysporum (Of); experiment: Minimum inhibitory concentration, malt yeast agar, Fusarium oxysporum; type: cell-based, Fusarium oxysporum ATCC 48112; settings: 30° C, 72 hours (fungi), read-out: Minimum Inhibitory Concentration, Fo
Protocol: as §1, §2

[10] = tested on: Candida albicans (Ca); experiment: Minimum inhibitory concentration, malt yeast agar, Candida albicans; type: cell-based, Candida albicans ATCC 10231; settings: read-out: Minimum Inhibitory Concentration, Ca
Protocol: as §1, §2

[11] = tested on: Aureobasidium pullulan (Ap); experiment: Minimum inhibitory concentration, malt yeast agar, Aureobasidium pullulan; type: cell-based, Aureobasidium pullulan ATCC 16622; settings: 30° C, 48 hours for yeast and 72 hours for fungi
Protocol: as §1, §2

[12] = tested on: Saccharomyces cerevisiae (Sc); experiment: Minimum inhibitory concentration, malt yeast agar, Saccharomyces cerevisiae; type: cell-based, Saccharomyces cerevisiae ATCC 4105; settings: read-out: Minimum Inhibitory Concentration, Sc
Protocol: as §1, §2

[13] = tested on: Penicillium chrysogenum (PC); experiment: Minimum inhibitory concentration, malt yeast agar, Penicillium chrysogenum; type: cell-based, Penicillium chrysogenum ATCC 9480; settings: read-out: Minimum Inhibitory Concentration, Pc
Protocol: as §1, §2

[14] = tested on: Klebsiella pneumoniae (Kp); experiment: Minimum inhibitory concentration, nutrient agar, Klebsiella pneumoniae; settings: 48 h
[15] = tested on: Aspergillus niger (An); experiment: Minimum inhibitory concentration, malt yeast agar, Aspergillus niger; type: cell-based, Aspergillus niger ATCC 16404; settings: 30° C, 72 hours (fungi)
Protocol: as §1, §2

[16] = tested on: Pseudomonas aeruginosa (Pa); experiment: Minimum inhibitory concentration, nutrient agar, Pseudomonas aeruginosa; type: cell-based, Pseudomonas aeruginosa ATCC 10145; settings: 30° C, 48 hours
[17] = tested on: marine organisms; experiment: Marine antifouling rating of coated test panels exposed under a marine surface; settings: scale 10 (completely free of growth) to 0 (completely covered), 1.0 g compound in 9.0 g latex binder
Protocol: Test panels are prepared from clear, rigid polyvinyl chloride film that is 0.381×10^-3 m thick and has one textured surface. The test panels are 0.1524 m by 0.1524 m squares that have 0.00635 m holes punched at corners on 0.127 m centers. A 0.102 square template, with a 0.067 m diameter hole at the center, is attached to the center of the textured surface of the test panels.
A candidate marine antifoulant compound (1.0 g) is stirred into a resinous latex binder (9.0 g). A portion of the compound/binder mixture (1.5 g) is added to the center of the test panel and uniformly spread over the circular area inside the template.
Water is added dropwise as needed to properly spread the compound/binder mixture. The template prevents the compound/binder mixture from spreading beyond the uncovered area. The test panel is allowed to sit for between 10 to 30 minutes until the edge of the spread compound/binder mixture has dried. The template is then removed. The test panel is then allowed to dry for 8 to 12 hours at room temperature.
Two test panels are prepared for each candidate marine antifoulant compound. Two control test panels are also prepared by only treating with the resinous latex binder. One test panel of each candidate marine […] compound is attached over a white background to the topside of an exposure support apparatus. The second test panel is attached over a black background to the underside of the exposure support apparatus. The exposure support apparatus is placed horizontally 0.0254 m under a marine surface with the white background topside facing up. […]
After being removed from the exposure support apparatus, each test panel is inspected and rated for marine organism growth on both the treated and untreated areas of the test panel. The marine organisms present on the treated and untreated areas are noted. The presence of algae spores and bacterial slime are noted but not included in rating each test panel. The test panels are rated on a scale from 10 (representing completely free of marine organism growth) to 0 (representing completely covered with marine organism growth).

[18] = pH 6.8, read-out: Minimum inhibitory Concentration, Pv
[19] = pH 8.2, read-out: Minimum inhibitory Concentration, Pv
[20] = pH 6.8, read-out: Minimum inhibitory Concentration, Bs
[21] = pH 8.2, read-out: Minimum inhibitory Concentration, Bs
[22] = malt yeast agar, 30° C, 72 hours (fungi)
[23] = pH 6.8, read-out: Minimum inhibitory Concentration, Sa
[24] = pH 8.2, read-out: Minimum inhibitory Concentration, Sa
[25] = pH 6.8, read-out: Minimum inhibitory Concentration, Ea
[26] = pH 8.2, read-out: Minimum inhibitory Concentration, Ea
[27] = pH 6.8, read-out: Minimum inhibitory Concentration, PRD
[28] = pH 8.2, read-out: Minimum inhibitory Concentration, PRD
[29] = pH 6.8, read-out: Minimum inhibitory Concentration, Ec
[30] = pH 8.2, read-out: Minimum inhibitory Concentration, Ec
[31] = malt yeast agar, 30° C, 48 hours (yeast)
[32] = pH 6.8, read-out: Minimum inhibitory Concentration, Kp
[33] = pH 8.2, read-out: Minimum inhibitory Concentration, Kp

Row | Compound | MIC [1, 18] [mg/L] | MIC [1, 19] [mg/L] | MIC [2, 20] [mg/L] | MIC [2, 21] [mg/L] | MIC ([3]; pH 6.8, nutrient agar) [mg/L] | MIC ([3]; pH 8.2, nutrient agar) [mg/L] | MIC [4, 22] [mg/L] | MIC [5, 23] [mg/L] | MIC [5, 24] [mg/L] | MIC [6, 25] [mg/L] | MIC [6, 26] [mg/L] | MIC [7, 27] [mg/L] | MIC [7, 28] [mg/L] | MIC [8, 29] [mg/L] | MIC [8, 30] [mg/L] | MIC [9] [mg/L] | MIC [11] [mg/L] | MIC [14, 32] [mg/L] | MIC [14, 33] [mg/L] | MIC ([16]; pH 8.2, nutrient agar) [mg/L] | further results
1 | O=c1[nH]c(=O)c2sc3nsnc3sc1=2 [Example I, 5H-Pyrrolo(3',4':5,6)(1,4)dithiino-(2,3-C) (1,2,5)thiadiazole-5,7 (6H) -dione] | 50 (≈ 206 µM) | > 500 | < 10 | > 500 | 100 (≈ 411 µM) | > 500 | 5 (≈ 20.6 µM) | 100 (≈ 411 µM) | > 500 | 250 (≈ 1030 µM) | > 500 | 500 (≈ 2060 µM) | > 500 | 100 (≈ 411 µM) | > 500 | < 1 | < 1 | 100 (≈ 411 µM) | > 500 | > 500 | MIC [10, 31]: 5 mg/L (≈ 20.6 µM); MIC [12, 31]: < 1 mg/L; MIC [13, 22]: < 1 mg/L; MIC [15]: < 1 mg/L; Marine Antifouling Rating, Bottom Panel ([17]; 6 weeks): 10; Marine Antifouling Rating, Top Panel ([17]; 6 weeks): 10; Marine Antifouling Rating, Bottom Panel ([17]; 10 weeks): 9; Marine Antifouling Rating, Top Panel ([17]; 10 weeks): 7; Marine Antifouling Rating, Bottom Panel ([17]; 16 weeks): 9; Marine Antifouling Rating, Top Panel ([17]; 16 weeks): 8
2 | Cn1c(=O)c2sc3nsnc3sc=2c1=O [II, 6-Methyl-5H-Pyrrolo (3',4':5,6)(1,4)dithiino-(2,3-C)(1,2,5)thiadiazole-5,7(6H) -dione] | 25 (≈ 97.2 µM) | > 500 | < 10 | 250 (≈ 972 µM) | 100 (≈ 389 µM) | > 500 | < 1 | 50 (≈ 194 µM) | 250 (≈ 972 µM) | > 500 | > 500 | > 500 | > 500 | 50 (≈ 194 µM) | > 500 | < 1 | < 1 | 250 (≈ 972 µM) | > 500 | > 500 | MIC [10, 31]: < 1 mg/L; MIC [12, 31]: < 1 mg/L; MIC [13, 22]: < 1 mg/L; MIC [15]: < 1 mg/L; MIC ([16]; pH 6.8, nutrient agar): > 500 mg/L
3 | CCn1c(=O)c2sc3nsnc3sc=2c1=O [III, 6-Ethyl-5H-Pyrrolo(3',4':5,6)(1,4)dithiino-(2,3-C)(1,2,5)thiadiazole-5,7(6H) -dione] | 50 (≈ 184 µM) | > 500 | 25 (≈ 92.1 µM) | 100 (≈ 369 µM) | 250 (≈ 921 µM) | > 500 | 500 (≈ 1840 µM) | 50 (≈ 184 µM) | 250 (≈ 921 µM) | > 500 | > 500 | > 500 | > 500 | 50 (≈ 184 µM) | > 500 | 250 (≈ 921 µM) | < 10 | 500 (≈ 1840 µM) | > 500 | > 500 | MIC [10, 31]: < 10 mg/L; MIC [12, 31]: < 10 mg/L; MIC [13, 22]: 25 mg/L (≈ 92.1 µM); MIC ([16]; pH 6.8, nutrient agar): > 500 mg/L
4 | CCCCCCn1c(=O)c2sc3nsnc3sc=2c1=O [V, 6-n-Hexyl-5H-Pyrrolo (3',4':5,6)(1,4)dithiino-(2,3-C)(1,2,5)thiadiazole-5,7(6H) -dione] | > 500 | > 500 | < 10 | 25 (≈ 76.3 µM) | > 500 | > 500 | – | < 10 | < 10 | > 500 | > 500 | > 500 | > 500 | > 500 | > 500 | – | 25 (≈ 76.3 µM) | > 500 | > 500 | > 500 | MIC ([4]; 72 h): 50 mg/L (≈ 153 µM); MIC ([10]; 48 h): 25 mg/L (≈ 76.3 µM); MIC ([12]; 48 h): 25 mg/L (≈ 76.3 µM); MIC [13, 22]: 25 mg/L (≈ 76.3 µM); MIC ([16]; pH 6.8, nutrient agar): > 500 mg/L
5 | O=c1c2sc3nsnc3sc=2c(=O)n1-c1ccccc1 [VI, 6-Phenyl-5H-Pyrrolo(3',4':5,6)(1,4)dithiino-(2,3-C)(1,2,5)thiadiazole-5,7 (6H) -dione] | > 500 | > 500 | < 10 | 100 (≈ 313 µM) | > 500 | > 500 | 500 (≈ 1570 µM) | 25 (≈ 78.3 µM) | 50 (≈ 157 µM) | > 500 | > 500 | > 500 | > 500 | > 500 | > 500 | 250 (≈ 783 µM) | < 10 | > 500 | > 500 | > 500 | MIC [10, 31]: 250 mg/L (≈ 783 µM); MIC [12, 31]: 100 mg/L (≈ 313 µM); MIC ([13]; 72 h): < 10 mg/L; MIC [15]: < 10 mg/L; MIC ([16]; pH 6.8, nutrient agar): > 500 mg/L
6 | O=c1c2sc3nsnc3sc=2c(=O)n1CCc1ccccc1 [VII, 6-(2-Phenethyl)-5H-Pyrrolo(3',4':5,6)(1,4)dithiino-(2,3-C)(1,2,5)thiadiazole-5,7(6H)-dione] | > 500 | > 500 | > 500 | > 500 | > 500 | > 500 | > 500 | > 500 | > 500 | > 500 | > 500 | > 500 | > 500 | > 500 | > 500 | > 500 | 100 (≈ 288 µM) | > 500 | > 500 | > 500 | MIC [10, 31]: > 500 mg/L; MIC [12, 31]: 250 mg/L (≈ 720 µM); MIC [13, 22]: > 500 mg/L; MIC [15]: 100 mg/L (≈ 288 µM); MIC ([16]; pH 6.8, nutrient agar): > 500 mg/L

Reference: patent US5633219A, “5H-pyrrolo(3',4':5,6)(1,4)dithiin o(2,3-C)(1,2,5)thiadiazole-5,7(6H)-dione, compositions containing them and their use as antimicrobial and marine antifouling agents” (The Dow Chemical Company, priority 1996, dated 1997)
